Experimental findings from ChEMBL document CHEMBL4610000, “Discovery of structurally distinct tricyclic M4 positive allosteric modulator (PAM) chemotypes” (Bioorg Med Chem Lett, 2020) are described below.

The target of one data set is T1, Muscarinic acetylcholine receptor M4 (Homo sapiens, UniProt P08173).
T1 sequence (P08173 whole entry): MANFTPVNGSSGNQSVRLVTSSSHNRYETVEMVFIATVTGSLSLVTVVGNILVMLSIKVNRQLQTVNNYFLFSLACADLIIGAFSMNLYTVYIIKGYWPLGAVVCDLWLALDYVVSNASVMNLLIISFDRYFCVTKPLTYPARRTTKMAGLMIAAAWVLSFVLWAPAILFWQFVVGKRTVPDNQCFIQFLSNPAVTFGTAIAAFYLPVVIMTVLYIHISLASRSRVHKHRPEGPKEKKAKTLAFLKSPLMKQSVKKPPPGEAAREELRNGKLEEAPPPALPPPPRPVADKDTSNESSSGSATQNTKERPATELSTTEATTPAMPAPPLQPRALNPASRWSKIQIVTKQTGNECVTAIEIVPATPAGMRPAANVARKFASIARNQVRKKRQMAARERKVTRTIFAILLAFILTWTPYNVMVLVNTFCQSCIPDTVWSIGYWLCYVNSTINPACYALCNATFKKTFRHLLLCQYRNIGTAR
In words: Positive allosteric modulation of human muscarinic M4 receptor expressed in CHO cells co-expressing Gqi5 assessed as increase in acetylcholine-induced calcium mobilization. The format is functional, cell-based.
Settings: not given
Turning to `Cn1nnc2ccc(C(=O)NC3CN(c4ncc(F)cc4Cl)C3)c(N)c21`, the EC50 was found to be 3600 nM.
On to `Cc1c2c(ccc3c(N4CCCC4)ncnc32)nn1C`, for which the EC50 was 624 nM.
Still for that read-out and setting: under `Cn1nnc2ccc(C(=O)NC3CN(c4ccc(F)c(F)c4)C3)c(N)c21` stands 2430 nM; under `Cc1c2c(N)c(C(=O)NC3CN(c4ncccc4F)C3)ccc2nn1C`, 3550 nM; under `Cc1c2c(N)c(C(=O)NC3CN(c4ncc(C#N)cc4Cl)C3)ccc2nn1C`, 158 nM.
With `COc1ccc(CNc2ncnc3c2ccc2nn(C)c(C)c23)cc1F`, the EC50 was 470 nM.
Still for that read-out and setting: as for `Cc1c2c(ccc3c(NCc4ccc(C(=O)NC5CCC5)cc4)ncnc32)nn1C`, the figure is 475 nM.
`Cc1c2c(ccc3c(CC(C)(C)C)ncnc32)nn1C`: the EC50 came out at 467 nM.
On the same count and under the same terms, as for `COc1cc(N2CC(NC(=O)c3ccc4nnn(C)c4c3N)C2)c(Cl)cn1`, the figure is 373 nM.
In the case of `Cc1c2c(ccc3c(NCc4ccc(F)c(F)c4)ncnc32)nn1C`, the 50% effective concentration (EC50) worked out at 1480 nM.
On to `Cc1c2c(ccc3c(NCc4ccc(C(C)(C)O)cc4)ncnc32)nn1C`, for which the EC50 was 552 nM.
As to `Cn1nnc2ccc(C(=O)NC3CN(c4ccc(C#N)cn4)C3)c(N)c21`, the EC50 came out at 1720 nM.
For the molecule `Cn1nnc2ccc(C(=O)NC3CN(c4cccc(Cl)n4)C3)c(N)c21`, the EC50 is 4500 nM.
Still for that read-out and setting: as for `Cn1nnc2ccc(C(=O)NC3CN(c4ccnc(C(F)(F)F)c4)C3)c(N)c21`, the figure is 814 nM; as for `COc1ccc(CNc2ncnc3c2ccc2nnn(C)c23)cc1F`, 592 nM; as for `[2H]C([2H])(Nc1ncnc2c1ccc1nn(C)c(C)c12)c1ccc(C(C)(C)O)cc1`, 886 nM.
Still for that read-out and setting: as for `Cn1nnc2ccc(C(=O)NC3CN(c4ncc(C#N)cc4Cl)C3)c(N)c21`, the figure is 462 nM.

In a further data set the target is T2, Muscarinic acetylcholine receptor M4 (Rattus norvegicus, UniProt P08485).
T2 sequence (P08485 whole entry): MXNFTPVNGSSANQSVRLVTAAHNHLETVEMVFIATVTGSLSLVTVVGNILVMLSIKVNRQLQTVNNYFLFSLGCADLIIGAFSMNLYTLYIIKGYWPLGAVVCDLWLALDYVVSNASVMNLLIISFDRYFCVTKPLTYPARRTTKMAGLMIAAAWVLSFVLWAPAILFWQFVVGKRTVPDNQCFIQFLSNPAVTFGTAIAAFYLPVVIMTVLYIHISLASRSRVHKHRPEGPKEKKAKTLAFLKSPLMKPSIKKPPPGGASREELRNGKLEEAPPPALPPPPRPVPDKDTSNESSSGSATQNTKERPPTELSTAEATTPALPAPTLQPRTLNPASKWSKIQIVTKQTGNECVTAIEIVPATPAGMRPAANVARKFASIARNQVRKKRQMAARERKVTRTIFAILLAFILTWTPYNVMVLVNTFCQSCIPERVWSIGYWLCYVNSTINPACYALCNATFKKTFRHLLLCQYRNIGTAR
Put plainly: Positive allosteric modulation of rat muscarinic M4 receptor.
Settings: not given
`Cc1c2cc(C(=O)NC3CN(c4cc(Cl)ncc4Cl)C3)ccc2nn1C`: the response was half-maximal at 259 nM (EC50).
Take `Cn1nnc2ccc(C(=O)NC3CN(c4cc(Cl)ncc4Cl)C3)cc21`: a half-maximal response (EC50) required 721 nM.
The molecule `Cc1c2c(N)c(C(=O)NC3CN(c4ncc(C#N)cc4Cl)C3)ccc2nn1C` had an EC50 of 129 nM.
In turn, `COc1ccc(CNc2ncnc3c2ccc2nn(C)c(C)c23)cc1F` returned an EC50 of 181 nM.
The molecule `Cc1c2c(ccc3c(NCc4ccc(C(=O)NC5CCC5)cc4)ncnc32)nn1C` came in with an EC50 of 322 nM.
Still for that read-out and setting: as for `COc1cc(N2CC(NC(=O)c3ccc4nnn(C)c4c3N)C2)c(Cl)cn1`, the figure is 232 nM.

System in another data set: not listed separately
In words: Unbound brain-to-plasma concentration ratio in Sprague-Dawley rat at 0.2 mg/kg, iv measured after 0.25 hrs. In kind it is ADME, organism-based. Conditions: brain and plasma, read-out: K(p,uu,brain).
Take `Cc1c2cc(C(=O)NC3CN(c4cc(Cl)ncc4Cl)C3)ccc2nn1C`: the Kp uu at 0.25 h stood at 0.04.
Same read-out and setting: as for `Cn1nnc2ccc(C(=O)NC3CN(c4cc(Cl)ncc4Cl)C3)cc21`, the figure is < 0.11.

System in another data set: not listed separately
Put plainly: Intrinsic clearance in human microsomes. The format is ADME, Microsome.
Settings: not given
The molecule `Cc1c2cc(C(=O)NC3CN(c4cc(Cl)ncc4Cl)C3)ccc2nn1C` returned a CLint scaled of 33 mL/min/kg.
The same measure, in the same setting: as for `Cn1nnc2ccc(C(=O)NC3CN(c4cc(Cl)ncc4Cl)C3)cc21`, the figure is 21 mL/min/kg.

The next data set deals with T3, Muscarinic acetylcholine receptor M4 (Homo sapiens) (UniProt P08173).
T3 sequence (whole entry): T1 sequence (P08173 whole entry)
Put plainly: Positive allosteric modulation of human muscarinic M4 receptor expressed in CHO cells co-expressing Gqi5 assessed as increase in acetylcholine-induced calcium mobilization relative to acetylcholine. In kind it is functional, cell-based.
Settings: not given
As to `Cn1nnc2ccc(C(=O)NC3CN(c4ncc(F)cc4Cl)C3)c(N)c21`, the %max was 80%.
On the same count and under the same terms, under `Cc1c2c(ccc3c(N4CCCC4)ncnc32)nn1C` stands 74%; under `Cn1nnc2ccc(C(=O)NC3CN(c4ccc(F)c(F)c4)C3)c(N)c21`, 94%.
For `Cc1c2c(N)c(C(=O)NC3CN(c4ncccc4F)C3)ccc2nn1C`, the %max was 103%.
`Cc1c2c(N)c(C(=O)NC3CN(c4ncc(C#N)cc4Cl)C3)ccc2nn1C`: the %max came out at 93%.
As to `COc1ccc(CNc2ncnc3c2ccc2nn(C)c(C)c23)cc1F`, the %max is 95%.
`Cc1c2c(ccc3c(NCc4ccc(C(=O)NC5CCC5)cc4)ncnc32)nn1C`: the %max turned out to be 100%.
On the same count and under the same terms, as for `Cc1c2c(ccc3c(CC(C)(C)C)ncnc32)nn1C`, the figure is 98%; as for `COc1cc(N2CC(NC(=O)c3ccc4nnn(C)c4c3N)C2)c(Cl)cn1`, 71%; as for `Cc1c2c(ccc3c(NCc4ccc(F)c(F)c4)ncnc32)nn1C`, 86%.
`Cc1c2c(ccc3c(NCc4ccc(C(C)(C)O)cc4)ncnc32)nn1C`: the %max came to 86%.
`Cn1nnc2ccc(C(=O)NC3CN(c4ccc(C#N)cn4)C3)c(N)c21`: the %max turned out to be 60%.
Turning to `Cn1nnc2ccc(C(=O)NC3CN(c4cccc(Cl)n4)C3)c(N)c21`, the %max was found to be 84%.
The same measure, in the same setting: as for `Cn1nnc2ccc(C(=O)NC3CN(c4ccnc(C(F)(F)F)c4)C3)c(N)c21`, the figure is 79%.
`COc1ccc(CNc2ncnc3c2ccc2nnn(C)c23)cc1F`: the %max worked out at 74%.
On to `Cn1nnc2ccc(C(=O)NC3CN(c4ncc(C#N)cc4Cl)C3)c(N)c21`, for which the %max came to 83%.

Staying with this data set, now noted: tested as the 2H-labelled form.
Turning to `Cc1c2c(ccc3c(NCc4ccc(C(C)(C)O)cc4)ncnc32)nn1C`, the %max stood at 86%.

System in a further data set: not listed separately
Put plainly: Intrinsic clearance in rat microsomes. In kind it is ADME, Microsome.
Settings: not given
The molecule `Cc1c2cc(C(=O)NC3CN(c4cc(Cl)ncc4Cl)C3)ccc2nn1C` registered a CLint scaled of 28 mL/min/kg.
`Cn1nnc2ccc(C(=O)NC3CN(c4cc(Cl)ncc4Cl)C3)cc21`: the intrinsic metabolic clearance (CLint scaled) was found to be 10 mL/min/kg.

System in another data set: not listed separately
In words: Brain to plasma permeability coefficient, Kp of the compound in Sprague-Dawley rat at 0.2 mg/kg, iv measured after 0.25 hrs. The format is ADME, organism-based. Conditions: brain and plasma.
Molecule `Cc1c2cc(C(=O)NC3CN(c4cc(Cl)ncc4Cl)C3)ccc2nn1C` came in with a Kp at 0.25 h of 0.05.
The same measure, in the same setting: as for `Cn1nnc2ccc(C(=O)NC3CN(c4cc(Cl)ncc4Cl)C3)cc21`, the figure is < 0.05.
